In ChEMBL document CHEMBL2380192, “Structure-activity relationship of potent antimicrobial peptide analogs of Ixosin-B amide” (Bioorg Med Chem Lett, 2013) one finds MIC90, hemolysis and Activity data, which are given here for 16 compounds.

≈ marks a conversion by molar mass, not a printed value. Calls of active or inactive are those of the source. The rule behind the calls is not given here. Where only a bound is given, the exact number is not on record here.

Data set [1] relates to Escherichia coli. Kind of data set: Antimicrobial activity against Escherichia coli ATCC 25922 after 18 to 20 hrs by macrobroth dilution method. It is filed as functional.
In data set [2] the test system is Pseudomonas aeruginosa. Kind of data set: Antimicrobial activity against Pseudomonas aeruginosa ATCC 27853 after 18 to 20 hrs by macrobroth dilution method. It is filed as functional. On the technique in general: Dilution methods test growth across graded concentrations, often in twofold steps.
Data set [3] can be described thus: Toxicity against human RBCs assessed as hemolysis at 100 uM after 1 hr by spectrophotometry. The conditions noted are these: red blood cells (RBCs), read-out: Activity. It is filed as cell-based, Erythrocyte.
Data set [4] concerns Staphylococcus aureus. Kind of data set: Antimicrobial activity against Staphylococcus aureus ATCC 25923 after 18 to 20 hrs by macrobroth dilution method. The data set is classed as functional.
The subject of data set [5] is Escherichia coli. The data set is described as follows: Induction of inner membrane permeabilization in Escherichia coli ML-35p at 1 uM measured every 2 mins by beta-galactosidase/ONPG hydrolysis assay. The data set is classed as functional, organism-based.
The test system of data set [6] is Escherichia coli. The data set is described as follows: Induction of outer membrane permeabilization in Escherichia coli ML-35p at 10 to 20 uM measured every 2 mins by beta-lactamase/nitrocefin hydrolysis assay. The data set is classed as functional, organism-based.
In data set [7] the test system is Escherichia coli. The data set is described as follows: Induction of outer membrane permeabilization in Escherichia coli ML-35p at 1 uM measured every 2 mins by beta-lactamase/nitrocefin hydrolysis assay. The data set is classed as functional, organism-based.
The subject of data set [8] is Escherichia coli. The data set is described as follows: Induction of inner membrane permeabilization in Escherichia coli ML-35p at 10 to 100 uM measured every 2 mins by beta-galactosidase/ONPG hydrolysis assay. The data set is classed as functional, organism-based.
In data set [9] the test system is Escherichia coli. The data set is described as follows: Induction of outer membrane permeabilization in Escherichia coli ML-35p at 40 to 100 uM measured every 2 mins by beta-lactamase/nitrocefin hydrolysis assay. The data set is classed as functional, organism-based.

As a reminder, the MIC90 is an inhibitory concentration at the 90% level, which refers to growth in some studies and to a panel of isolates in others. Read a high MIC90 as lower susceptibility. In the case of H-WKSYVRRWRS-OH, the MIC90 in data set [1] was 64 µM; in [2] it was over 100 µM; in data set [4], over 100 µM. In addition, in data set [3], the hemolysis at 1 h, 100 µM was -0.4%.
Regarding GENTAMICIN, the MIC90 in [1] was found to be 1 µM; in data set [2], 0.35 µM; in data set [4] it was 0.1 µM.
With `CC1(C)S[C@@H]2[C@H](NC(=O)Cc3ccccc3)C(=O)N2[C@H]1C(=O)O` [PENICILLIN G], the MIC90 in data set [1] is over 100 µM; in [2], over 100 µM; in data set [4], 0.125 µM (≈ 0.0418 µg/mL).
Turning to H-WWSYVRRWRSR-OH, the result in data set [5] and in data set [7] was inactive. Moreover, the MIC90 in [1] was 16 µM; in [2], over 100 µM; in [4], 8 µM. Besides, the result in [6], in [8] and in data set [9] was Active. Further, the hemolysis at 1 h, 100 µM in [3] came to 3.4%.
On to H-WKSDVRRWRSRY-OH, for which the MIC90 is 64 µM in [1], over 100 µM in [2] and over 100 µM in data set [4]. Also, the hemolysis at 1 h, 100 µM in data set [3] is 0.3%.
In the case of H-GKSDVRRWRSRY-OH, the MIC90 in [1], in data set [2] and in data set [4] was over 100 µM in each case.
“H-QLKVDLWGTRSGIQPEQHSSGKSDVRRWRSRY-NH2 [Ixosin-B-amide]”: the MIC90 in data set [1] was 80 µM; in [2] it was over 100 µM; in data set [4], over 100 µM.
Take H-SGIQPEQHSS-OH: the MIC90 in data set [1], in data set [2] and in data set [4] was over 100 µM each time.
In the case of H-KKSYVRRWRS-OH, the MIC90 in data set [1], in data set [2] and in data set [4] was over 100 µM throughout. Also, in [3], the hemolysis at 1 h, 100 µM was -0.6%.
For the compound H-LWGTRSGIQP-OH, the MIC90 in [1], in data set [2] and in [4] was over 100 µM in each case.
For H-QLKVDLWGTR-OH, the MIC90 in data set [1], in data set [2] and in data set [4] was over 100 µM in each case.
On to H-WKSYVRRWRSRY-OH, for which the MIC90 in data set [1] amounted to 16 µM; in data set [2], 100 µM; in data set [4], 32 µM. Also, in [3], the hemolysis at 1 h, 100 µM came to 1.5%.
H-EQHSSGKSDV-OH: the MIC90 in data set [1], in data set [2] and in data set [4] was over 100 µM throughout.
H-WKSYVRRWRSR-OH: the MIC90 in data set [1] is 16 µM; in data set [2], over 100 µM; in data set [4], 32 µM. Further, the hemolysis at 1 h, 100 µM in [3] was -1.2%.
With H-WKSYVRRWR-OH, the MIC90 in data set [1] is 64 µM; in data set [2], over 100 µM; in data set [4], 64 µM. Moreover, the hemolysis at 1 h, 100 µM in [3] was determined as 1.1%.
As to H-WKSYVRRW-OH, the MIC90 is 64 µM in data set [1], over 100 µM in data set [2] and 100 µM in data set [4]. Further, in data set [3], the hemolysis at 1 h, 100 µM was found to be 2%.
